Legend:
[1] = test system: Influenza A (H3N2)
[2] = test system: eight bacterial strains representing four bacterial genera (Staphylococcus, Pseudomonas, Klebsiella, Enterococcus)
[3] = test system: Poliovirus type 1 (Sabin)
[4] = liquid containing reactive components
[5] = test system: Herpes simplex virus
[6] = test system: Hepatitis C; assay: trial on a Hepatitis C sufferer, ALT count as infection marker; format: in vivo, human; settings: for reduction of ALT count: over 16 week trial period, same trialist, interferon 9 million IU weekly

| Compound | sterilizing effect in vitro [1] | sterilizing effect in vitro [2] | sterilizing effect in vitro [3] | reduction of ethene in solution by reaction with other components [4] [%] | sterilizing effect in vitro [5] | anti-Hepatitis C efficacy better than the interferon therapy ([6]; ALT reduction over 16 weeks) [%] | depression (reported by trialist) ([6]; during therapy) | ALT count ([6]; end of week 4 (from 242), daily 230 millilitres ethene gas in 745 millilitres purified water) [u/l] | ALT count ([6]; end of week 6) [u/l] | ALT count ([6]; end of week 14) [u/l] | infection symptoms ([6]; first 18 days therapy) | reduction of ALT count [6] [u/l] | ALT count ([6]; week 16) [u/l] |
| --- | --- | --- | --- | --- | --- | --- | --- | --- | --- | --- | --- | --- | --- |
| C=C [ethene] | not to be sterilized | without apparent sterilizing success | not to be sterilized | 50 | not to be sterilized | 337 | significant lifting | 218 | 303 | 93 | amelioration of infection symptoms | 153 | 89 |
| interferon [reference compound] |  |  |  |  |  |  |  |  |  |  |  | 35 |  |

— patent US6384086B1, “Ethene containing solutions and use thereof in methods of therapy or prophylaxis” (priority 1996, dated 2002)
